pIC50: −log10 of the molar value.
Key:
IRAK1 enzyme = biological target: T1, IRAK1 enzyme (Homo sapiens, UniProt P51617); test: IRAK1 enzyme activity inhibition (ADP-Glo, Promega kit); assay type: biochemical; details: for inhibition at 0.1 µM: test compound 0.1 uM
T1 construct: purchased Promega VA7477
Procedure: An experiment on IRAK1 enzyme activity inhibition of the compound of the present invention was conducted.
An IRAK1 enzyme kit (purchased from Promega, product number: VA7477) was used to dilute a mixed solution between 0.1 µg/µL of protein kinase B (AKT), which is an enzyme-reactive substrate, and 1.25 mM of ATP with a reaction buffer (40 mM Tris-HCl, pH 7.5; 20 mM MgCl2; 0.1 mg/mL BSA; 50 µM DTT) according to the instructions, so as to dispense 2 µL in a 384-well white plate, and then to add 1 µL of a test compound, which was gradient diluted starting from 1 mM, to a 384-well white plate. After that, an IRAK1 enzyme was diluted with a reaction buffer to a final concentration of 5 ng/µL, then 2 µL/well was dispensed into a 384-well white plate and reacted at 37°C for 60 minutes. After completion of a reaction, an ADP-GloTM enzyme test kit (purchased from Promega, product number: V9102) was used to add 5 µL of ADP-Glo reaction reagent and cause a reaction at 37°C for 40 minutes, and then 10 µL of enzyme chromogenic reagent was added again to measure a luminescence signal using equipment for measuring absorbance (THECAN, Microplate Reader). An activity inhibition rate was calculated from a measured value, and a 50% inhibition concentration (IC50 value) was analyzed through a non-linear regression analysis based on the % inhibition for each concentration of the test compound, and is shown in Table 3.

IRAK4 enzyme = biological target: T2, IRAK4 enzyme (Homo sapiens, UniProt Q9NWZ3); test: IRAK4 enzyme activity inhibition (ADP-Glo, Promega kit); assay type: biochemical
T2 construct: purchased Promega V2621
T2 sequence (Q9NWZ3 1-460): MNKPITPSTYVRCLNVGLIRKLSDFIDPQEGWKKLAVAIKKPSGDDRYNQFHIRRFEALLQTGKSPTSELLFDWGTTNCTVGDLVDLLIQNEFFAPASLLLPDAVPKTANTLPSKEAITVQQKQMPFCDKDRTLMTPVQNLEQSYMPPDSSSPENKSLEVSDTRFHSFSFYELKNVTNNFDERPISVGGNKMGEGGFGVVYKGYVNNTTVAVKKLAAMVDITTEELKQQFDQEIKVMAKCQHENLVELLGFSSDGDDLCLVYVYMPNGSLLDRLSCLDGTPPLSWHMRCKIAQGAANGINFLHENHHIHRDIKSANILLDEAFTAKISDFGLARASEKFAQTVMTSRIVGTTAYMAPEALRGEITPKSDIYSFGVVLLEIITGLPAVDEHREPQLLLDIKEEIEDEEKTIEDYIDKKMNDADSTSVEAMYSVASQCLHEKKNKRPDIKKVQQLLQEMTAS
Procedure: An experiment on IRAK4 enzyme activity inhibition of the compound of the present invention was conducted.
An IRAK4 enzyme kit (purchased from Promega, product number: V2621) was used to dilute a mixed solution between 0.1 µg/µL of myelin basic protein (MBP), which is an enzyme-reactive substrate, and 1.25 mM of ATP with a reaction buffer (40 mM Tris-HCl, pH 7.5; 20 mM MgCl2; 0.1 mg/mL BSA; 50 µM DTT) according to the instructions, so as to dispense 2 µL in a 384-well white plate, and then to add 1 µL of a test compound, which was gradient diluted starting from 1 mM, to a 384-well plate. After that, an IRAK4 enzyme was diluted with a reaction buffer to a final concentration of 5 ng/µL, then 2 µL/well was dispensed into a 384-well white plate and reacted at 37°C for 60 minutes. After completion of a reaction, an ADP-GloTM enzyme test kit (purchased from Promega, product number: V9102) was used to add 5 µL of ADP-Glo reaction reagent and cause a reaction at 37°C for 40 minutes, and then 10 µL of enzyme chromogenic reagent was added again to measure a luminescence signal using equipment for measuring absorbance (THECAN, Microplate Reader). An activity inhibition rate was calculated from a measured value, and a 50% inhibition concentration (IC50 value) was analyzed through a non-linear regression analysis based on the % inhibition for each concentration of the test compound, and is shown in Table 2.

hPBMC TNFα = test: Cell-based inflammatory cytokine secretion inhibition (LPS-stimulated PBMC, hTNF-α ELISA); details: human PBMC, LPS 1 µg/mL, hTNF-α by ELISA, mean; read-out: hPBMC TNFα IC50_mean
Procedure: An experiment on inflammatory cytokine secretion inhibition of the compound of the present invention was conducted.
PBMC (LONZA, peripheral blood mononuclear cells) isolated from human whole blood was dispensed into a 96-well plate at a density of 1.0 X 10^5 cells/well, and the cells were stabilized for 20 hours. After that, a test compound diluted at each of four concentrations was added to a Roswell Park Memorial Institute (RPMI) medium, reacted for one hour, treated with lipopolysaccharide (LPS) to reach a final concentration of 1 µg/mL, and further reacted for one hour. hTNF-α, which is an inflammatory cytokine, was measured by an enzyme linked immunosorbent assay using an ELISA kit from Goma Biotech. A cell supernatant, a standard drug, and an antibody were added to an ELISA-plate and reacted for four hours in total, after which the plate was washed, reacted with streptavidin-HRP for 30 minutes, and washed again. After that, a TMB substrate was added and reacted in a dark place, and when a color was sufficiently developed, a stop solution was added to stop the reaction. hTNF-α was measured by measuring absorbance at 450 nm using equipment for absorption measurement (Microplate Reader from BioTeK). An activity inhibition rate was calculated from a measured absorbance value, a % inhibition for each concentration of the test compound was calculated, a 50% inhibition concentration (IC50 value) was analyzed through a non-linear regression analysis, and the results are shown in Table 4.

T1 sequence (P51617 whole entry): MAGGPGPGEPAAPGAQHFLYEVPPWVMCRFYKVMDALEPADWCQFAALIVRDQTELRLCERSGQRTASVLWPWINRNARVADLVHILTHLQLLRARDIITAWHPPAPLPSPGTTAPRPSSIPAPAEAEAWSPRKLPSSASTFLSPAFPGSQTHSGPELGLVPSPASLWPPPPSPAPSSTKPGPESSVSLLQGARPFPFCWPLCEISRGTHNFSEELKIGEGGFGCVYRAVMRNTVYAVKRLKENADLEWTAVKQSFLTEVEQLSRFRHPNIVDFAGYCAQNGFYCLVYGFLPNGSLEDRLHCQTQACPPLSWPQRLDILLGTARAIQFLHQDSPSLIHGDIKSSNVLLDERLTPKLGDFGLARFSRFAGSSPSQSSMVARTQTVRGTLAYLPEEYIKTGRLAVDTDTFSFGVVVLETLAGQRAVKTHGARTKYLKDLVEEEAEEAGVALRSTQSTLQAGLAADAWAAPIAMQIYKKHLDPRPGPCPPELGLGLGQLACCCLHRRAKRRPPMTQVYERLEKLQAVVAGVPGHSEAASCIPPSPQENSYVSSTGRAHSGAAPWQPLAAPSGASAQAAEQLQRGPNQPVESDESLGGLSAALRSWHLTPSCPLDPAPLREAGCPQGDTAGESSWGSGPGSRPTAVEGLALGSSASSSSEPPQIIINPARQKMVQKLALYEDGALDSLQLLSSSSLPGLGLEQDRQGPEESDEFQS

Row | Molecule | inhibition at 0.1 µM (IRAK1 enzyme) | inhibition at 0.1 µM (IRAK4 enzyme; test compound 0.1 uM) | inhibition at 1 µM (IRAK4 enzyme; test compound 1 uM) | inhibition at 1 µM (IRAK1 enzyme; test compound 1 uM) | other results
1 | CC(C)(O)CCn1cc2cc(NC(=O)c3cccc(S(N)(=O)=O)c3)c(N3CCOCC3)cc2n1 [Example 15] | 28.5% | 88.8% | 95.2% | 66.5% | pIC50 (IRAK4 enzyme): 8.43; pIC50 (hPBMC TNFα): 6.24
2 | CC(C)(O)CCn1cc2cc(NC(=O)c3cccc(S(N)(=O)=O)c3)c(-c3ccc(CN4CCOCC4)cc3)cc2n1 [Example 39, N-(2-(3-hydroxy-3-methylbutyl)-6-(4-(morpholinomethyl)phenyl)-2H-indazol-5-yl)-3-sulfamoylbenzamide] | 23% | 69.7% | – | 35.2% | –
3 | CNC(=O)CNC(=O)c1ccc(-c2cc3nn(CCC(C)(C)O)cc3cc2NC(=O)c2cccc([N+](=O)[O-])c2)cc1 [Example 41, N-(2-(3-hydroxy-3-methylbutyl)-6-(4-((2-(methylamino)-2-oxoethyl)carbamoyl)phenyl)-2H-indazol-5-yl)-3-nitrobenzamide] | 0.4% | 69% | – | – | –
4 | CC(C)(O)CCn1cc2cc(NC(=O)c3cccc([N+](=O)[O-])c3)c(-c3ccc(C(=O)NCC(N)=O)cc3)cc2n1 [Example 43, N-(6-(4-((2-amino-2-oxoethyl)carbamoyl)phenyl)-2-(3-hydroxy-3-methylbutyl)-2H-indazol-5-yl)-3-nitrobenzamide] | 1.7% | 63% | – | – | –
5 | CC(C)(O)CCn1cc2cc(NC(=O)c3cccc(S(N)(=O)=O)c3)c(-c3ccc(C(N)=O)cc3)cc2n1 [Example 46, N-(6-(4-carbamoylphenyl)-2-(3-hydroxy-3-methylbutyl)-2H-indazol-5-yl)-3-sulfamoylbenzamide] | 3.2% | 57.5% | – | – | –
6 | CCOC(=O)[C@H](NC(=O)c1ccc(-c2cc3nn(CCC(C)(C)O)cc3cc2NC(=O)c2cccc(S(N)(=O)=O)c2)cc1)C(C)C [Example 47, Ethyl (4-(2-(3-hydroxy-3-methylbutyl)-5-(3-sulfamoylbenzamido)-2H-indazol-6-yl)benzoyl)-D-valinate] | 1.3% | 56.8% | – | – | –
7 | COC(=O)CCNC(=O)c1cncc(-c2cc3nn(CCC(C)(C)O)cc3cc2NC(=O)c2cccc(S(N)(=O)=O)c2)c1 [Example 48, Methyl 3-(5-(2-(3-hydroxy-3-methylbutyl)-5-(3-sulfamoylbenzamido)-2H-indazol-6-yl)nicotinamido)propanoate] | 39.7% | 56.7% | – | – | –
8 | CC(C)(O)CCn1cc2cc(NC(=O)c3cccc(C(N)=O)c3)c(-c3ccc(C(=O)NCc4ccoc4)cc3)cc2n1 [Example 49, N-(6-(4-((furan-3-ylmethyl)carbamoyl)phenyl)-2-(3-hydroxy-3-methylbutyl)-2H-indazol-5-yl)isophthalamide] | 27.7% | 55.4% | – | 31.6% | –
9 | CNC(=O)[C@@H](C)NC(=O)c1cncc(-c2cc3nn(CCC(C)(C)O)cc3cc2NC(=O)c2cccc(S(N)(=O)=O)c2)c1 [Example 51, (R)-5-(2-(3-hydroxy-3-methylbutyl)-5-(3-sulfamoylbenzamido)-2H-indazol-6-yl)-N-(1-(methylamino)-1-oxopropan-2-yl)nicotinamide] | 0% | 48.8% | – | – | –
10 | N-(1-(3-hydroxy-3-methylbutyl)-6-morpholino-1H-indazol-5-yl)-3-nitrobenzamide [Example 28] | – | – | – | – | IRAK1 %enzyme inhibition (1 uM) (IRAK1 enzyme; test compound 1 uM): 9.10%; IRAK4 %enzyme inhibition (0.1 uM) (IRAK4 enzyme; test compound 0.1 uM): 56.1%; IRAK4 %enzyme inhibition (1 uM) (IRAK4 enzyme; test compound 1 uM): 89.9%

Further lines, with some results ahead:

Row | inhibition at 0.1 µM (IRAK1 enzyme) | inhibition at 0.1 µM (IRAK4 enzyme; test compound 0.1 uM) | inhibition at 1 µM (IRAK4 enzyme; test compound 1 uM) | inhibition at 1 µM (IRAK1 enzyme; test compound 1 uM) | Molecule | other results
11 | 32.1% | 72.7% | 86.5% | – | CC(C)(O)CCn1cc2cc(NC(=O)c3cncc([N+](=O)[O-])c3)c(N3CCOCC3)cc2n1 [Example 2, N-(2-(3-hydroxy-3-methylbutyl)-6-morpholino-2H-indazol-5-yl)-5-nitronicotinamide] | pIC50 (IRAK4 enzyme): 7.25; pIC50 (hPBMC TNFα): 6.28
12 | – | 81.7% | 94.4% | – | CC(C)(O)CCn1cc2cc(NC(=O)c3cccc([N+](=O)[O-])c3)c(N3CCOCC3)cc2n1 [Example 3, N-(2-(3-hydroxy-3-methylbutyl)-6-morpholino-2H-indazol-5-yl)-3-nitrobenzamide] | pIC50 (IRAK1 enzyme): 5.59; pIC50 (IRAK4 enzyme): 9.70; pIC50 (hPBMC TNFα): 7.29
13 | 67.2% | 89.3% | 97.9% | 82.4% | CC(C)(O)CCn1cc2cc(NC(=O)c3cccc(-c4ccn[nH]4)n3)c(N3CCOCC3)cc2n1 [Example 21, N-(2-(3-hydroxy-3-methylbutyl)-6-morpholino-2H-indazol-5-yl)-6-(1H-pyrazol-5-yl)picolinamide] | pIC50 (IRAK1 enzyme): 7.15; pIC50 (IRAK4 enzyme): 8.82; pIC50 (hPBMC TNFα): 7.92
14 | 6.5% | 69.7% | – | 11.2% | CC(C)(O)CCn1cc2cc(NC(=O)c3cccc([N+](=O)[O-])c3)c(N3CCSCC3)cc2n1 [Example 40, N-(2-(3-hydroxy-3-methylbutyl)-6-thiomorpholino-2H-indazol-5-yl)-3-nitrobenzamide] | –
15 | – | 59.6% | 75% | 0% | CC(C)(O)Cn1cc2cc(NC(=O)c3cccc([N+](=O)[O-])c3)c(N3CCSCC3)cc2n1 [Example 45, N-(2-(2-hydroxy-2-methylpropyl)-6-thiomorpholino-2H-indazol-5-yl)-3-nitrobenzamide] | –
16 | – | 55.1% | 68.8% | 9.6% | CC(C)(O)Cn1cc2cc(NC(=O)c3cccc([N+](=O)[O-])c3)c(-c3ccsc3)cc2n1 [Example 50, N-(2-(2-hydroxy-2-methylpropyl)-6-(thiophen-3-yl)-2H-indazol-5-yl)-3-nitrobenzamide] | –
17 | 0% | 21.2% | – | – | CS(=O)(=O)CCn1ncc2cc(NC(=O)c3cccc([N+](=O)[O-])c3)c(N3CCOCC3)cc21 [Example 52, N-(1-(2-(methylsulfonyl)ethyl)-6-morpholino-1H-indazol-5-yl)-3-nitrobenzamide] | –
18 | 13.9% | 2.7% | – | – | CS(=O)(=O)CCn1cc2cc(NC(=O)c3cccc(S(N)(=O)=O)c3)c(N3CCOCC3)cc2n1 [Example 53, N-(2-(2-(methylsulfonyl)ethyl)-6-morpholino-2H-indazol-5-yl)-3-sulfamoylbenzamide] | –

Reference: patent publication EP4737451A1 (Dong Wha Pharm. Co., Ltd., priority 2023, dated 2025)
